Patent US20240261398A1 (priority 2018, published 2024)
Values joined by “and” are separate entries in the source; they are usually repeats but may differ in a detail not shown here. Equal values may be shown once.

Key:
[1] = tested on: MA-CA04 virus; parameters: species or system mice; details: mouse, in vivo
[2] = tested on: MA-CA04 virus; parameters: species or system BALB/c mice; details: mouse, in vivo

SMILES | Survival rate (%) [1] [%] | Mean value of antibody titers (Log 10 PFU/g) ± Standard deviation, Lung, 3 days after infection [2] | Mean value of antibody titers (Log 10 PFU/g) ± Standard deviation, Nasal concha, 3 days after infection [2] | further results
O.O=P([O-])([O-])OCC(O)CO.[Ca+2] (stereo not shown) | 75 | – | – | influence on body weight (FIG. 3 A and C) [1]: the same level as the previously known adjuvant Poly(I:C); survival rate (FIG. 3 B and D) [1]: the same level as Poly(I:C) or was slightly lower than Poly(I:C)
CC(/C=C/C=C(C)/C=C/C(=O)O)=C\C=C\C=C(C)\C=C\C=C(C)\C=C\C(=O)O (stereo in doubt) [Norbixin] | 50 | 7.2 ± 0.3 Log 10 PFU/g and 7.4 ± 0.3 Log 10 PFU/g | – | –
O=S([O-])[O-].[Na+].[Na+] [Sodium sulfite] | – | 7.0 ± 0.1 Log 10 PFU/g | 6.1 ± 0.3 Log 10 PFU/g and 6.2 ± 0.2 Log 10 PFU/g | –
C[C@@H]1O[C@@H](OC[C@H]2O[C@@H](Oc3c(-c4ccc(O)c(O)c4)oc4cc(O)cc(O)c4c3=O)[C@H](O)[C@@H](O)[C@@H]2O)[C@H](O)[C@H](O)[C@H]1O [Rutin hydrate] | 75 | – | – | –
O=C([O-])c1ccccc1.[Na+] [Sodium benzoate] | – | 6.7 ± 0.2 Log 10 PFU/g and 7.0 ± 0.2 Log 10 PFU/g | 6.4 ± 0.1 Log 10 PFU/g and 6.2 ± 0.04 Log 10 PFU/g | virus titers in the nasal concha and the lung, six days after the infection [2]: no virus titers were detected in some mice
CC(/C=C/C=C(\C)C(=O)O[C@@H]1O[C@H](CO[C@@H]2O[C@H](CO)[C@@H](O)[C@H](O)[C@H]2O)[C@@H](O)[C@H](O)[C@H]1O)=C\C=C\C=C(C)\C=C\C=C(/C)C(=O)O[C@@H]1O[C@H](CO[C@@H]2O[C@H](CO)[C@@H](O)[C@H](O)[C@H]2O)[C@@H](O)[C@H](O)[C@H]1O [Crocin] | 50 | – | – | –
COC(=O)[C@H](Cc1ccccc1)NC(=O)[C@H](CC(=O)O)NCCC(C)(C)C [Neotame] | – | 7.5 ± 0.3 Log 10 PFU/g and 7.5 ± 0.2 Log 10 PFU/g | 6.1 ± 0.05 Log 10 PFU/g and 6.3 ± 0.1 Log 10 PFU/g | virus titers in the nasal concha and the lung, six days after the infection [2]: no virus titers were detected in some mice
Cc1cc2nc3c(=O)[nH]c(=O)nc-3n(C[C@H](O)[C@H](O)[C@H](O)CO)c2cc1C [Riboflavin] | 25 | – | – | –
